# Data from patent US20230355553A1, “COMPOSITIONS AND METHODS FOR TREATING AND/OR PREVENTING OCULAR DISORDERS” (University of Virginia Patent Foundation, priority 2020, published 2023).
# Key:
# [1] = test system: Alu RNA-induced RPE degeneration; test: Alu RNA-induced RPE degeneration in mice, racemic fluoxetine vs enantiomers (fundus photos); format: in vivo, mouse; conditions: subretinal Alu RNA 180 ng, 172 ng drug intravitreous, 7 days
# Description: In vitro transcribed Alu RNA (SEQ ID NO: 1; 180 ng) was injected into the subretinal space of mice and 172 ng racemic fluoxetine (TCI Chemicals, Portland, Oregon, United States of America) or enantiomers of fluoxetine (Santa Cruz Biotechnology, Inc., Dallas, Texas, United States of America) was injected into the vitreous humor. Fundus photos were captured 7 days later. […] Arrowheads show the extent and intensity of degeneration of the retinal pigmented epithelium (RPE).
# [2] = test system: caspase-1 activation; test: Western blot of Alu RNA-induced caspase-1 activation in mouse BMDMs; format: cell-based; conditions: Alu RNA-transfected mouse BMDMs, Fluoxetine 10 µM, n = 3 per group
# Description: (§1) Cell culture. The human retinal pigment epithelial cell line ARPE-19 (ATCC) was maintained in Dulbecco’s Modified Eagle Medium (DMEM) supplemented with 10% fetal bovine serum (FBS) and standard antibiotics. Mouse bone marrow derived macrophages (BMDMs) were cultured in Iscove’s modified Dulbecco’s media (IMDM) with 10% FBS and 20% L929 supernatants. All cells were maintained at 37° C. in a 5% CO2 environment.
# (§2) In order to test for the ability of fluoxetine to inhibit inflammasome activation, cells were transfected with (SEQ ID NO: 1) RNA or mock-transfected for 12 hour and pre-treated with Fluoxetine (10 µM) for 1 hour and again after Alu RNA (SEQ ID NO: 1) transfection. Supernatants were collected and were briefly spun down to remove floating cells. Proteins from the cell-free supernatant were precipitated by adding sodium deoxycholate (0.15% final) followed by adding TCA (7.2% final) and incubating on ice overnight. Samples were spun down at 13000 × g for 30 minutes and pellets were washed 2 times with ice-cold acetone. Precipitated proteins solubilized in 4X LDS Buffer with 2-mercaptoethanol were resolved by SDS-PAGE on NOVEX® brand Tris-Glycine Gels (Invitrogen Corporation, Carlsbad, California, United States of America) and transferred onto Immobilon-FL PVDF membranes (MilliporeSigma, Burlington, Massachusetts, United States of America). […]
# [3] = test system: secreted IL-18; test: ELISA of secreted cytokine from human ARPE-19 cells; format: cell-based; conditions: Alu RNA (FIG. 4A), Fluoxetine 10 µM, P < 0.005
# [4] = test system: caspase-1 activation; test: Western blot of Alu RNA-induced caspase-1 activation in human ARPE19 cells; format: cell-based; conditions: Alu RNA-transfected human ARPE19 cells, Fluoxetine 10 µM, n = 3 per group
# Description: as §1, §2
# [5] = test system: ASC specks; test: ASC speck assay in BMDMs; format: cell-based, mouse; conditions: Alu RNA-transfected BMDMs; Fluoxetine 10 µM pretreatment 2 hours; n = 5; P = 0.006
# Description: The ASC speck assay was employed as a measure of inflammasome activation. BMDMs seeded on chambered coverslips (30,000 cells/well) for 12 hours were pretreated with Fluoxetine (10 µM) or 0.1% DMSO (control) for 2 hours. Cells were transfected with Alu RNA (SEQ ID NO: 1) using LIPOFECTAMINE™ 3000 brand transfection reagent (Thermo Fisher Scientific, Waltham, Massachusetts, United States of America) for 12 hours. Coverslips were fixed with 2% paraformaldehyde (15 minutes at room temperature), washed with PBS, permeabilized, blocked with blocking buffer (PBS, 0.1% TX-100, 5% normal goat serum; 1 hour at 4° C.) and incubated with anti-ASC antibody (Adipogen; 1:300) with blocking buffer. Nuclei were stained with DAPI. Slides mounted using FLUOROMOUNT-G® brand mounting medium (SouthernBiotech, Birmingham, Alabama, United States of America) were imaged by confocal microscopy (Nikon A1R). The numbers of specks per 40x field were compared by two-tailed Student’s t test.
# [6] = test system: cataract formation; test: Cataract formation after administration of fluoxetine preparations to the eye; format: in vivo
# [7] = test system: secreted IL-1β; test: ELISA of secreted cytokine from mouse bone marrow derived macrophages; format: cell-based; conditions: mouse BMDMs, B2 RNA (FIG. 3B), Fluoxetine 10 µM, P = 0.01
# [8] = test system: dry macular degeneration; test: Health insurance claims analysis (PearlDiver database) of dry macular degeneration among patients with depression; format: in vivo, human
# Excerpt: Data on patients with commercial health insurance was obtained from the PearlDiver Patient Records Database (Colorado Springs, Colorado, United States of America), which captures health care claims and medication usage for persons in the Humana network from 2007 to 2017. These de-identified data are Health Insurance Portability and Accountability Act-compliant and were deemed by the University of Virginia Institutional Review Board (IRB; University of Virginia, Charlottesville, United States of America) as exempt from IRB approval requirements.
# Patients were included in the analysis if they had continuous enrollment in the plan for at least 1 year and had at least 2 medical claims of Depression and were at least 50 years of age at baseline. Individuals with pre-existing Dry Macular Degeneration (1 or more medical claims prior to diagnosis of Depression) were excluded. Disease claims were identified by International Classification of Diseases (ICD)-9-CM and ICD-10-CM codes.
# Individuals were classified as receiving Fluoxetine if they filled one or more outpatient pharmacy prescriptions for generic or brand versions, either in sole form or as a combination medication, as identified by National Drug Codes of the Food and Drug Administration (FDA) of the United States.
# Time to initial diagnosis of Dry Macular Degeneration, which was confirmed by 2 or more medical claims, was the dependent variable for this analysis.
# To analyze the risk of Dry Macular Degeneration between those exposed to Fluoxetine and those not exposed to Fluoxetine, an adjusted Cox proportional hazards model was fit. The adjusted model included as covariates age, gender, race, smoking, and body mass index.
# The event rates of dry macular degeneration in the general population and in the depression cohort are shown. Fluoxetine use was associated with a crude risk reduction of 28%. P < 0.0001 by χ2 test. Fluoxetine use was associated with a reduction in the hazard of developing dry macular degeneration. P < 0.0001 by likelihood ratio test.
# [9] = test system: Alu RNA-induced RPE degeneration; test: Alu RNA-induced RPE degeneration in mice (ZO-1-stained RPE flat mounts); format: in vivo, mouse; conditions: subretinal Alu RNA 300 ng, drug 1 mM in 0.5 µl intravitreous 24 hours before and immediately after, 7 days
# Description: Animals. Animal experiments were approved by the University of Virginia (UVA) Institutional Animal Care and Use Committee. C57BL/6J mice (The Jackson Laboratory) were anesthetized with ketamine hydrochloride and xylazine.
# The ability of various antidepressant drugs to inhibit Alu RNA (SEQ ID NO: 1) induced RPE degeneration was tested in mice. In vitro transcribed Alu RNA (SEQ ID NO: 1; 300 ng in 1 µl) or vehicle control (PBS) were injected subretinally into mice. Fluoxetine (FLX), Citalopram (CIT), Paroxetine (PAR), Sertraline (SER), Escitalopram (ESC), Venlafaxine (VEN), Imipramine (IMI), Amitriptyline (AMI), Agomelatine (AGO; all from Cayman Chemical Company, Ann Arbor, Michigan, United States of America; 1 mM in 0.5 µl), or PBS was injected into the vitreous humor 24 hours before and immediately after Alu RNA (SEQ ID NO: 1) injections. Animals were euthanized 7 days after Alu RNA (SEQ ID NO: 1) injection, and the eyes were enucleated.
# RPE health was assessed by immunofluorescence staining of zonula occludens-1 (ZO-1) on RPE flat mounts. Flat mounts were fixed with 2% paraformaldehyde, stained with rabbit polyclonal antibodies against mouse ZO-1 (Invitrogen; 1:100), and visualized with Alexa-594 (Invitrogen), and imaged using an A1R Nikon confocal microscope. Images were graded as healthy or degenerated in masked fashion. […]
# [10] = test system: amyloid beta-induced RPE degeneration; test: Oligomerized amyloid beta-induced RPE degeneration in mice (fundus photos); format: in vivo, mouse; conditions: subretinal oligomerized amyloid beta, fluoxetine 172 ng intravitreous, 7 days
# Description: The ability of fluoxetine to inhibit RPE degeneration induced by oligomerized amyloid beta was also tested. Oligomerized amyloid beta (0.6 micromoles; AnaSpec Inc., Fremont, California, United States of America) was injected into the subretinal space and fluoxetine (172 ng; TCI Chemicals) was injected into the vitreous humor. Fundus photos were captured 7 days later.
smiles,measurement,setting,value
CNCC[C@H](Oc1ccc(C(F)(F)F)cc1)c1ccccc1 [S-fluoxetine],RPE degeneration extent and intensity (fundus photos),[1],more complete protection
"CNCCC(Oc1ccc(C(F)(F)F)cc1)c1ccccc1 (racemic) [Fluoxetine, N-methyl-3-phenyl-3-[4-(trifluoromethyl)phenoxy]propan-1-amine]",caspase-1 activation (cleavage of pro-caspase-1 into active caspase-1),[2],reduced
same,secreted IL-18 (FIG. 4A),[3],statistically significantly reduced
same,caspase-1 activation (cleavage of pro-caspase-1 into active caspase-1),[4],reduced
same,ASC speck formation (number of specks per 40x field),[5],inhibited
same,"cataract formation, share of subjects",[6],up to 50%
same,secreted IL-1β (FIG. 3B),[7],statistically significantly reduced
same,Hazard Ratio (95% Confidence Interval) of developing dry macular degeneration,"[8]; Fluoxetine Use Yes vs. No, multivariate Cox regression corrected for age, gender, race, smoking, body mass index","0.590 (0.565, 0.616)"
same,crude risk reduction of dry macular degeneration,"[8]; Fluoxetine use vs no use, P < 0.0001 by χ2 test",28%
same,rate of developing dry macular degeneration (Kaplan-Meier),"[8]; Fluoxetine use, log rank test P < 0.0001 (FIG. 7)",slower rate
same,Event Rate of dry macular degeneration,"[8]; Fluoxetine users (Ever), depression cohort",3.5%
same,Dry Macular Degeneration (#),"[8]; Fluoxetine users (Ever), depression cohort, age at least 50, 84,603 total patients","3,000"
same,RPE degeneration (percentage of eyes with RPE degeneration),[9],significantly reduced
same,RPE degeneration extent and intensity (fundus photos),[10],reduced the RPE degeneration extent and intensity
same,RPE degeneration extent and intensity (fundus photos),[1],"reduced the RPE degeneration extent and intensity, although the protection was partial"
CNCC[C@@H](Oc1ccc(C(F)(F)F)cc1)c1ccccc1 [R-fluoxetine],RPE degeneration extent and intensity (fundus photos),[1],more complete protection
